Measurements as given in the supplement of paper PMC10307832.

Legend:
Assay in all cases: relative viability (nuclei count vs DMSO), 5 days (fraction); higher = more cells survive
[1] = tested on: BEN
How it was run: (§1)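 Relative viability divides the nuclei count in treated wells by that in vehicle wells. Lung cancer cell lines were seeded in 1536-well plates, dosed by pin tool the next day, and fixed and stained after 5 days in one step with final 0.05% Triton X-100, 1% formaldehyde and 1 ug/ml Hoechst. Dosing was a single drug or a fixed anchor-drug dose plus five library-drug doses (not always all listed) in √10 steps, and values are medians of duplicate plates imaged at 4×.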

[2] = tested on: ChaGo-K-1
How it was run: as §1

[3] = tested on: HCC-78
How it was run: as §1

[4] = tested on: LC-2-ad
How it was run: as §1

[5] = tested on: LCLC-97TM1
How it was run: as §1

[6] = tested on: LK-2
How it was run: as §1

[7] = tested on: LU99A
How it was run: as §1

[8] = tested on: LXF-289
How it was run: as §1

[9] = tested on: NCI-H1355
How it was run: as §1

[10] = tested on: NCI-H1651
How it was run: as §1

[11] = tested on: NCI-H1666
How it was run: as §1

[12] = tested on: NCI-H1944
How it was run: as §1

[13] = tested on: NCI-H1975
How it was run: as §1

[14] = tested on: NCI-H2087
How it was run: as §1

[15] = tested on: NCI-H2342
How it was run: as §1

[16] = tested on: NCI-H358
How it was run: as §1

[17] = tested on: NCI-H596
How it was run: as §1

[18] = tested on: NCI-H650
How it was run: as §1

[19] = tested on: NCI-H838
How it was run: as §1

[20] = tested on: PC-3 [JPC-3]
How it was run: as §1

SMILES: O=c1cc(N2CCOCC2)oc2c(-c3cccc4c3sc3ccccc34)cccc12 + NC(=O)Nc1cc(-c2cccc(F)c2)sc1C(=O)N[C@H]1CCCNC1 [AZD7762] (partner 0.2 µM)
- relative viability ([1]; first compound 0.01 µM): 0.576
- relative viability ([1]; first compound 0.03162 µM): 0.86
- relative viability ([1]; first compound 0.1 µM): 0.289
- relative viability ([1]; first compound 0.3162 µM): 0.735
- relative viability ([1]; first compound 1 µM): 0.626
- relative viability ([2]; first compound 0.01 µM): 0.847
- relative viability ([2]; first compound 0.03162 µM): 0.898
- relative viability ([2]; first compound 0.1 µM): 0.6
- relative viability ([2]; first compound 0.3162 µM): 0.831
- relative viability ([2]; first compound 1 µM): 0.938
- relative viability ([3]; first compound 0.01 µM): 0.629
- relative viability ([3]; first compound 0.03162 µM): 0.616
- relative viability ([3]; first compound 0.1 µM): 0.354
- relative viability ([3]; first compound 0.3162 µM): 0.615
- relative viability ([3]; first compound 1 µM): 0.5
- relative viability ([4]; first compound 0.01 µM): 0.815
- relative viability ([4]; first compound 0.03162 µM): 0.777
- relative viability ([4]; first compound 0.1 µM): 0.831
- relative viability ([4]; first compound 0.3162 µM): 0.817
- relative viability ([4]; first compound 1 µM): 0.785
- relative viability ([5]; first compound 0.01 µM): 0.215
- relative viability ([5]; first compound 0.03162 µM): 0.353
- relative viability ([5]; first compound 0.1 µM): 0.0724
- relative viability ([5]; first compound 0.3162 µM): 0.349
- relative viability ([5]; first compound 1 µM): 0.22
- relative viability ([6]; first compound 0.01 µM): 0.468
- relative viability ([6]; first compound 0.03162 µM): 0.369
- relative viability ([6]; first compound 0.1 µM): 0.262
- relative viability ([6]; first compound 0.3162 µM): 0.369
- relative viability ([6]; first compound 1 µM): 0.354
- relative viability ([7]; first compound 0.01 µM): 0.37
- relative viability ([7]; first compound 0.03162 µM): 0.415
- relative viability ([7]; first compound 0.1 µM): 0.438
- relative viability ([7]; first compound 0.3162 µM): 0.314
- relative viability ([7]; first compound 1 µM): 0.384
- relative viability ([8]; first compound 0.01 µM): 1.11
- relative viability ([8]; first compound 0.03162 µM): 1.08
- relative viability ([8]; first compound 0.1 µM): 0.75
- relative viability ([8]; first compound 0.3162 µM): 1.2
- relative viability ([8]; first compound 1 µM): 1.21
- relative viability ([9]; first compound 0.01 µM): 0.726
- relative viability ([9]; first compound 0.03162 µM): 0.676
- relative viability ([9]; first compound 0.1 µM): 0.255
- relative viability ([9]; first compound 0.3162 µM): 0.903
- relative viability ([9]; first compound 1 µM): 0.72
- relative viability ([10]; first compound 0.01 µM): 0.494
- relative viability ([10]; first compound 0.03162 µM): 0.504
- relative viability ([10]; first compound 0.1 µM): 0.454
- relative viability ([10]; first compound 0.3162 µM): 0.44
- relative viability ([10]; first compound 1 µM): 0.384
- relative viability ([11]; first compound 0.01 µM): 0.842
- relative viability ([11]; first compound 0.03162 µM): 0.886
- relative viability ([11]; first compound 0.1 µM): 0.797
- relative viability ([11]; first compound 0.3162 µM): 0.675
- relative viability ([11]; first compound 1 µM): 0.7
- relative viability ([12]; first compound 0.01 µM): 0.541
- relative viability ([12]; first compound 0.03162 µM): 0.527
- relative viability ([12]; first compound 0.1 µM): 0.481
- relative viability ([12]; first compound 0.3162 µM): 0.528
- relative viability ([12]; first compound 1 µM): 0.438
- relative viability ([13]; first compound 0.01 µM): 0.676
- relative viability ([13]; first compound 0.03162 µM): 0.735
- relative viability ([13]; first compound 0.1 µM): 0.554
- relative viability ([13]; first compound 0.3162 µM): 0.808
- relative viability ([13]; first compound 1 µM): 0.553
- relative viability ([14]; first compound 0.01 µM): 1.37
- relative viability ([14]; first compound 0.03162 µM): 1.23
- relative viability ([14]; first compound 0.1 µM): 1.44
- relative viability ([14]; first compound 0.3162 µM): 1.31
- relative viability ([14]; first compound 1 µM): 1.36
- relative viability ([15]; first compound 0.01 µM): 0.566
- relative viability ([15]; first compound 0.03162 µM): 0.483
- relative viability ([15]; first compound 0.1 µM): 0.366
- relative viability ([15]; first compound 0.3162 µM): 0.45
- relative viability ([15]; first compound 1 µM): 0.433
- relative viability ([16]; first compound 0.01 µM): 0.49
- relative viability ([16]; first compound 0.03162 µM): 0.517
- relative viability ([16]; first compound 0.1 µM): 0.354
- relative viability ([16]; first compound 0.3162 µM): 0.445
- relative viability ([16]; first compound 1 µM): 0.519
- relative viability ([17]; first compound 0.01 µM): 1.19
- relative viability ([17]; first compound 0.03162 µM): 1.2
- relative viability ([17]; first compound 0.1 µM): 0.75
- relative viability ([17]; first compound 0.3162 µM): 1.18
- relative viability ([17]; first compound 1 µM): 1.08
- relative viability ([18]; first compound 0.01 µM): 1.11
- relative viability ([18]; first compound 0.03162 µM): 1.15
- relative viability ([18]; first compound 0.3162 µM): 1.15
- relative viability ([18]; first compound 1 µM): 1.24
- relative viability ([19]; first compound 0.01 µM): 0.918
- relative viability ([19]; first compound 0.03162 µM): 0.963
- relative viability ([19]; first compound 0.1 µM): 0.934
- relative viability ([19]; first compound 0.3162 µM): 0.93
- relative viability ([19]; first compound 1 µM): 0.924
- relative viability ([20]; first compound 0.01 µM): 0.65
- relative viability ([20]; first compound 0.03162 µM): 0.855
- relative viability ([20]; first compound 0.1 µM): 0.87
- relative viability ([20]; first compound 0.3162 µM): 0.954
- relative viability ([20]; first compound 1 µM): 0.834
